ChEMBL document CHEMBL3885881, “DrugMatrix”

Species on record: Rattus norvegicus
Experiment: DrugMatrix - Regimen: Daily Repeat
Assay type: toxicity, organism-based, Sprague-Dawley
Design: regimen Daily Repeat, gender Male, age 6-8 weeks
Conditions: in vivo, po, route oral GAVAGE, vehicle .5 % CMC; for BASOPHIL / EOSINOPHIL / ERYTHROCYTE COUNT / HEMATOCRIT / HEMOGLOBIN / LEUKOCYTE COUNT / LYMPHOCYTE / MEAN CORPUSCULAR HEMOGLOBIN / MEAN CORPUSCULAR HEMOGLOBIN CONCENTRATION / MEAN CORPUSCULAR VOLUME / MONOCYTE / NEUTROPHIL / PLATELET COUNT: tissue Blood; for ALANINE AMINOTRANSFERASE / ALBUMIN / ALKALINE PHOSPHATASE / ASPARTATE AMINOTRANSFERASE / BLOOD UREA NITROGEN / CHLORIDE / CHOLESTEROL / CREATINE PHOSPHOKINASE / CREATININE / GLUCOSE / PHOSPHORUS / POTASSIUM / SODIUM / TOTAL BILIRUBIN / TOTAL PROTEIN: tissue Plasma
[1] = 0 mg/kg, 72 h, dose level Control, time 3 day
[2] = 0 mg/kg, 120 h, dose level Control, time 5 day
[3] = 21 mg/kg, 72 h, dose level Low, time 3 day
[4] = 21 mg/kg, 120 h, dose level Low, time 5 day

Compound: Cc1onc(-c2ccccc2)c1-c1ccc(S(N)(=O)=O)cc1 [VALDECOXIB]
- BASOPHIL [1]: 0.68%
- EOSINOPHIL [1]: 0.46%
- ERYTHROCYTE COUNT [1]: 7.15 x10E6/uL
- HEMATOCRIT [1]: 45.44%
- HEMOGLOBIN [1]: 14.1 G/DL
- LEUKOCYTE COUNT [1]: 9.78 x10E3/uL
- LYMPHOCYTE [1]: 84.44%
- MEAN CORPUSCULAR HEMOGLOBIN [1]: 19.72 pg
- MEAN CORPUSCULAR HEMOGLOBIN CONCENTRATION [1]: 31 G/DL
- MEAN CORPUSCULAR VOLUME [1]: 63.66 fL
- MONOCYTE [1]: 2.14%
- NEUTROPHIL [1]: 11.16%
- PLATELET COUNT [1]: 1378.2 x10E3/uL
- ALANINE AMINOTRANSFERASE [1]: 42.33 u/L
- ALBUMIN [1]: 3.8 G/DL
- ALKALINE PHOSPHATASE [1]: 388.17 u/L
- ASPARTATE AMINOTRANSFERASE [1]: 68 u/L
- BLOOD UREA NITROGEN [1]: 16.17 mg/dL
- CHLORIDE [1]: 96.67 MEQ/L
- CHOLESTEROL [1]: 71 mg/dL
- CREATINE PHOSPHOKINASE [1]: 156.17 u/L
- CREATININE [1]: 0.57 mg/dL
- GLUCOSE [1]: 193.67 mg/dL
- PHOSPHORUS [1]: 11.43 mg/dL
- POTASSIUM [1]: 7 MEQ/L
- SODIUM [1]: 140.33 MEQ/L
- TOTAL BILIRUBIN [1]: 0.48 mg/dL
- TOTAL PROTEIN [1]: 6.8 G/DL
- BASOPHIL [2]: 1.47%
- EOSINOPHIL [2]: 1%
- ERYTHROCYTE COUNT [2]: 7.12 x10E6/uL
- HEMATOCRIT [2]: 45.47%
- HEMOGLOBIN [2]: 14.1 G/DL
- LEUKOCYTE COUNT [2]: 11.38 x10E3/uL
- LYMPHOCYTE [2]: 82.57%
- MEAN CORPUSCULAR HEMOGLOBIN [2]: 19.82 pg
- MEAN CORPUSCULAR HEMOGLOBIN CONCENTRATION [2]: 31.02 G/DL
- MEAN CORPUSCULAR VOLUME [2]: 63.88 fL
- MONOCYTE [2]: 2.2%
- NEUTROPHIL [2]: 11.97%
- PLATELET COUNT [2]: 1267 x10E3/uL
- ALANINE AMINOTRANSFERASE [2]: 38 u/L
- ALBUMIN [2]: 3.72 G/DL
- ALKALINE PHOSPHATASE [2]: 391 u/L
- ASPARTATE AMINOTRANSFERASE [2]: 65.83 u/L
- BLOOD UREA NITROGEN [2]: 14.17 mg/dL
- CHLORIDE [2]: 107.67 MEQ/L
- CHOLESTEROL [2]: 61 mg/dL
- CREATINE PHOSPHOKINASE [2]: 148.33 u/L
- CREATININE [2]: 0.57 mg/dL
- GLUCOSE [2]: 177.17 mg/dL
- PHOSPHORUS [2]: 12.07 mg/dL
- POTASSIUM [2]: 7.2 MEQ/L
- SODIUM [2]: 151.5 MEQ/L
- TOTAL BILIRUBIN [2]: 0.58 mg/dL
- TOTAL PROTEIN [2]: 6.72 G/DL
- BASOPHIL [3]: 0.53%
- EOSINOPHIL [3]: 0.4%
- ERYTHROCYTE COUNT [3]: 6.91 x10E6/uL
- HEMATOCRIT [3]: 43%
- HEMOGLOBIN [3]: 13.7 G/DL
- LEUKOCYTE COUNT [3]: 11.32 x10E3/uL
- LYMPHOCYTE [3]: 84.1%
- MEAN CORPUSCULAR HEMOGLOBIN [3]: 19.8 pg
- MEAN CORPUSCULAR HEMOGLOBIN CONCENTRATION [3]: 31.87 G/DL
- MEAN CORPUSCULAR VOLUME [3]: 62.2 fL
- MONOCYTE [3]: 2.17%
- NEUTROPHIL [3]: 11.67%
- PLATELET COUNT [3]: 1322.33 x10E3/uL
- ALANINE AMINOTRANSFERASE [3]: 35 u/L
- ALBUMIN [3]: 3.63 G/DL
- ALKALINE PHOSPHATASE [3]: 309 u/L
- ASPARTATE AMINOTRANSFERASE [3]: 58.33 u/L
- BLOOD UREA NITROGEN [3]: 13 mg/dL
- CHLORIDE [3]: 95.33 MEQ/L
- CHOLESTEROL [3]: 78.33 mg/dL
- CREATINE PHOSPHOKINASE [3]: 150 u/L
- CREATININE [3]: 0.47 mg/dL
- GLUCOSE [3]: 190 mg/dL
- PHOSPHORUS [3]: 11.8 mg/dL
- POTASSIUM [3]: 6.2 MEQ/L
- SODIUM [3]: 139 MEQ/L
- TOTAL BILIRUBIN [3]: 0.2 mg/dL
- TOTAL PROTEIN [3]: 6.43 G/DL
- BASOPHIL [4]: 1.7%
- EOSINOPHIL [4]: 5.9%
- ERYTHROCYTE COUNT [4]: 7.33 x10E6/uL
- HEMATOCRIT [4]: 45.75%
- HEMOGLOBIN [4]: 14.55 G/DL
- LEUKOCYTE COUNT [4]: 9.46 x10E3/uL
- LYMPHOCYTE [4]: 42.8%
- MEAN CORPUSCULAR HEMOGLOBIN [4]: 19.85 pg
- MEAN CORPUSCULAR HEMOGLOBIN CONCENTRATION [4]: 31.85 G/DL
- MEAN CORPUSCULAR VOLUME [4]: 62.35 fL
- MONOCYTE [4]: 1.7%
- NEUTROPHIL [4]: 47.25%
- PLATELET COUNT [4]: 1408 x10E3/uL
- ALANINE AMINOTRANSFERASE [4]: 30.33 u/L
- ALBUMIN [4]: 3.67 G/DL
- ALKALINE PHOSPHATASE [4]: 296.33 u/L
- ASPARTATE AMINOTRANSFERASE [4]: 52.67 u/L
- BLOOD UREA NITROGEN [4]: 12.67 mg/dL
- CHLORIDE [4]: 104 MEQ/L
- CHOLESTEROL [4]: 61 mg/dL
- CREATINE PHOSPHOKINASE [4]: 128.67 u/L
- CREATININE [4]: 0.43 mg/dL
- GLUCOSE [4]: 196 mg/dL
- PHOSPHORUS [4]: 12.73 mg/dL
- POTASSIUM [4]: 7.17 MEQ/L
- SODIUM [4]: 149.67 MEQ/L
- TOTAL BILIRUBIN [4]: 0.43 mg/dL
- TOTAL PROTEIN [4]: 6.7 G/DL
